{"source": "patent US7507739B2", "about": "“6-[(substituted)phenyl]triazolopyrimidines as anticancer agents” (Wyeth, priority 2003, dated 2009)", "test_system": "HeLa cells", "experiment": "Cell cycle analysis with HeLa cells", "type": "cell-based, human", "settings": "18 hr", "experimental": "HeLa cells are harvested by trypsinization, washed, counted and distributed to wells of 12-well plates at 125,000 cells per well in 2 mL medium. Cells are cultured overnight. […] Cells are continued in culture for 18 hr after compound addition, then cells in each well are harvested (taking care to recover both adherent and non-adherent cells) and processed using the CycleTEST PLUS kit (Becton Dickinson Immunocytometry Systems, San Jose, Calif.). Flow cytometry is done with a FACSort instrument (Becton Dickinson).\nThis procedure measures the percentages of cells in a population that are in the G1, S, and G2/M phases of the cell cycle. It utilizes staining of cell nuclei with propidium iodide and analysis by flow cytometry."}
{"molecule": "CNCCCOc1cc(F)c(-c2c(Cl)nc3ncnn3c2N[C@@H](C)C(F)(F)F)c(F)c1.Cl", "note": "[Example 2a, 5-Chloro-6-{2,6-difluoro-4-[3-(methylamino)propoxy]phenyl}-N-[(1S)-2,2,2-trifluoro-1-methylethyl][1,2,4]triazolo[1,5-a]pyrimidin-7-amine hydrogen chloride]", "values": [{"measurement": "Percent in Cell Cycle Phase >4N", "setting": "20 nM", "result": 2, "unit": "%"}, {"measurement": "Percent in Cell Cycle Phase Apop", "setting": "20 nM", "result": 28, "unit": "%"}, {"measurement": "Percent in Cell Cycle Phase G1", "setting": "20 nM", "result": 41, "unit": "%"}, {"measurement": "Percent in Cell Cycle Phase G2/M", "setting": "20 nM", "result": 16, "unit": "%"}, {"measurement": "Percent in Cell Cycle Phase S", "setting": "20 nM", "result": 14, "unit": "%"}, {"measurement": "Percent in Cell Cycle Phase >4N", "setting": "30 nM", "result": 2, "unit": "%"}, {"measurement": "Percent in Cell Cycle Phase Apop", "setting": "30 nM", "result": 62, "unit": "%"}, {"measurement": "Percent in Cell Cycle Phase G1", "setting": "30 nM", "result": 12, "unit": "%"}, {"measurement": "Percent in Cell Cycle Phase G2/M", "setting": "30 nM", "result": 16, "unit": "%"}, {"measurement": "Percent in Cell Cycle Phase S", "setting": "30 nM", "result": 10, "unit": "%"}, {"measurement": "Percent in Cell Cycle Phase >4N", "setting": "40 nM", "result": 2, "unit": "%"}, {"measurement": "Percent in Cell Cycle Phase Apop", "setting": "40 nM", "result": 44, "unit": "%"}, {"measurement": "Percent in Cell Cycle Phase G1", "setting": "40 nM", "result": 5, "unit": "%"}, {"measurement": "Percent in Cell Cycle Phase G2/M", "setting": "40 nM", "result": 39, "unit": "%"}, {"measurement": "Percent in Cell Cycle Phase S", "setting": "40 nM", "result": 9, "unit": "%"}, {"measurement": "Percent in Cell Cycle Phase >4N", "setting": "50 nM", "result": 4, "unit": "%"}, {"measurement": "Percent in Cell Cycle Phase Apop", "setting": "50 nM", "result": 25, "unit": "%"}, {"measurement": "Percent in Cell Cycle Phase G1", "setting": "50 nM", "result": 5, "unit": "%"}, {"measurement": "Percent in Cell Cycle Phase G2/M", "setting": "50 nM", "result": 58, "unit": "%"}, {"measurement": "Percent in Cell Cycle Phase S", "setting": "50 nM", "result": 9, "unit": "%"}, {"measurement": "Percent in Cell Cycle Phase >4N", "setting": "60 nM", "result": 4, "unit": "%"}, {"measurement": "Percent in Cell Cycle Phase Apop", "setting": "60 nM", "result": 24, "unit": "%"}, {"measurement": "Percent in Cell Cycle Phase G1", "setting": "60 nM", "result": 4, "unit": "%"}, {"measurement": "Percent in Cell Cycle Phase G2/M", "setting": "60 nM", "result": 58, "unit": "%"}, {"measurement": "Percent in Cell Cycle Phase S", "setting": "60 nM", "result": 9, "unit": "%"}, {"measurement": "Percent in Cell Cycle Phase >4N", "setting": "70 nM", "result": 4, "unit": "%"}, {"measurement": "Percent in Cell Cycle Phase Apop", "setting": "70 nM", "result": 22, "unit": "%"}, {"measurement": "Percent in Cell Cycle Phase G1", "setting": "70 nM", "result": 6, "unit": "%"}, {"measurement": "Percent in Cell Cycle Phase G2/M", "setting": "70 nM", "result": 57, "unit": "%"}, {"measurement": "Percent in Cell Cycle Phase S", "setting": "70 nM", "result": 11, "unit": "%"}, {"measurement": "Percent in Cell Cycle Phase >4N", "setting": "80 nM", "result": 4, "unit": "%"}, {"measurement": "Percent in Cell Cycle Phase Apop", "setting": "80 nM", "result": 26, "unit": "%"}, {"measurement": "Percent in Cell Cycle Phase G1", "setting": "80 nM", "result": 7, "unit": "%"}, {"measurement": "Percent in Cell Cycle Phase G2/M", "setting": "80 nM", "result": 52, "unit": "%"}, {"measurement": "Percent in Cell Cycle Phase S", "setting": "80 nM", "result": 11, "unit": "%"}, {"measurement": "Percent in Cell Cycle Phase >4N", "setting": "90 nM", "result": 4, "unit": "%"}, {"measurement": "Percent in Cell Cycle Phase Apop", "setting": "90 nM", "result": 30, "unit": "%"}, {"measurement": "Percent in Cell Cycle Phase G1", "setting": "90 nM", "result": 7, "unit": "%"}, {"measurement": "Percent in Cell Cycle Phase G2/M", "setting": "90 nM", "result": 46, "unit": "%"}, {"measurement": "Percent in Cell Cycle Phase S", "setting": "90 nM", "result": 13, "unit": "%"}, {"measurement": "Percent in Cell Cycle Phase >4N", "setting": "100 nM", "result": 4, "unit": "%"}, {"measurement": "Percent in Cell Cycle Phase Apop", "setting": "100 nM", "result": 34, "unit": "%"}, {"measurement": "Percent in Cell Cycle Phase G1", "setting": "100 nM", "result": 7, "unit": "%"}, {"measurement": "Percent in Cell Cycle Phase G2/M", "setting": "100 nM", "result": 41, "unit": "%"}, {"measurement": "Percent in Cell Cycle Phase S", "setting": "100 nM", "result": 15, "unit": "%"}, {"measurement": "Percent in Cell Cycle Phase >4N", "setting": "110 nM", "result": 4, "unit": "%"}, {"measurement": "Percent in Cell Cycle Phase Apop", "setting": "110 nM", "result": 37, "unit": "%"}, {"measurement": "Percent in Cell Cycle Phase G1", "setting": "110 nM", "result": 9, "unit": "%"}, {"measurement": "Percent in Cell Cycle Phase G2/M", "setting": "110 nM", "result": 37, "unit": "%"}, {"measurement": "Percent in Cell Cycle Phase S", "setting": "110 nM", "result": 14, "unit": "%"}, {"measurement": "Percent in Cell Cycle Phase >4N", "setting": "120 nM", "result": 4, "unit": "%"}, {"measurement": "Percent in Cell Cycle Phase Apop", "setting": "120 nM", "result": 39, "unit": "%"}, {"measurement": "Percent in Cell Cycle Phase G1", "setting": "120 nM", "result": 8, "unit": "%"}, {"measurement": "Percent in Cell Cycle Phase G2/M", "setting": "120 nM", "result": 36, "unit": "%"}, {"measurement": "Percent in Cell Cycle Phase S", "setting": "120 nM", "result": 15, "unit": "%"}]}
